Data: ChEMBL document CHEMBL1201861, “Genomics of Drug Sensitity in Cancer screening data, Wellcome Trust Sanger Institute”

Key:
[1] = system: MFH-ino; test: cells; assay type: functional, cell-based, Homo sapiens; settings: Homo sapiens, MFH-ino;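 also: growth inhibition of human MFH-ino cells, read out by a cell viability assay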
Description: SANGER: Inhibition of human MFH-ino cell growth in a cell viability assay.

[2] = system: HSC-3; test: cells; assay type: functional, cell-based; settings: Homo sapiens
Description: SANGER: Inhibition of human HSC-3 cell growth in a cell viability assay.

[3] = system: A-427; test: cells; assay type: functional, cell-based; settings: Homo sapiens;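 also: growth inhibition of human A-427 cells, read out by a cell viability assay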
Description: SANGER: Inhibition of human A427 cell growth in a cell viability assay.

[4] = system: COLO-679; test: cells; assay type: functional, cell-based; settings: Homo sapiens
Description: SANGER: Inhibition of human COLO-679 cell growth in a cell viability assay.

[5] = system: NCI-H719; test: cells; assay type: functional, cell-based, Homo sapiens; settings: Homo sapiens, NCI-H719;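 also: growth inhibition of the cultured cell line, read out with a viability assay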
Description: SANGER: Inhibition of human NCI-H719 cell growth in a cell viability assay.

[6] = system: COLO-678; test: cells; assay type: functional, cell-based; settings: Homo sapiens
Description: SANGER: Inhibition of human COLO-678 cell growth in a cell viability assay.

[7] = system: NCI-H2087; test: cells; assay type: functional, cell-based; settings: Homo sapiens;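 also: growth inhibition determined with a cell viability readout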
Description: SANGER: Inhibition of human NCI-H2087 cell growth in a cell viability assay.

[8] = system: U-118-MG; test: cells; assay type: functional, cell-based; settings: Homo sapiens
Description: SANGER: Inhibition of human U-118-MG cell growth in a cell viability assay.

[9] = system: JIYOYE; test: cells; assay type: functional, cell-based, Homo sapiens; settings: Homo sapiens, JIYOYE
Description: SANGER: Inhibition of human JiyoyeP-2003 cell growth in a cell viability assay.

[10] = system: CA46; test: cells; assay type: functional, cell-based, Homo sapiens; settings: Homo sapiens, CA46;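 also: growth inhibition of human CA46 cells, read out by a cell viability assay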
Description: SANGER: Inhibition of human CA46 cell growth in a cell viability assay.

[11] = system: T98G; test: cells; assay type: functional, cell-based; settings: Homo sapiens;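 also: growth inhibition of T98G cells, read out by a cell viability assay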
Description: SANGER: Inhibition of human T98G cell growth in a cell viability assay.

[12] = system: SK-N-AS; test: cells; assay type: functional, cell-based; settings: Homo sapiens;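 also: growth inhibition of human SK-N-AS cells, measured with a cell viability assay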
Description: SANGER: Inhibition of human SK-N-AS cell growth in a cell viability assay.

[13] = system: L-540; test: cells; assay type: functional, cell-based, Homo sapiens; settings: Homo sapiens, L-540;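 also: growth inhibition of the human L-540 cell line, read out with a viability assay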
Description: SANGER: Inhibition of human L-540 cell growth in a cell viability assay.

[14] = system: EB-3; test: cells; assay type: functional, cell-based, Homo sapiens; settings: Homo sapiens, EB-3;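 also: human EB-3 cells, growth inhibition read out via a cell viability assay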
Description: SANGER: Inhibition of human EB-3 cell growth in a cell viability assay.

[15] = system: HCC1395; test: cells; assay type: functional, cell-based; settings: Homo sapiens;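 also: growth inhibition of HCC1395 cells, read out by a cell viability assay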
Description: SANGER: Inhibition of human HCC1395 cell growth in a cell viability assay.

[16] = system: NCI-H661; test: cells; assay type: functional, cell-based; settings: Homo sapiens;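 also: cell viability assay read-out, IC50 being the concentration that inhibits growth of the cells by half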
Description: SANGER: Inhibition of human NCI-H661 cell growth in a cell viability assay.

[17] = system: OPM-2; test: cells; assay type: functional, cell-based, Homo sapiens; settings: Homo sapiens, OPM-2;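 also: growth of OPM-2 cells measured with a viability assay, IC50 for suppression of proliferation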
Description: SANGER: Inhibition of human OPM-2 cell growth in a cell viability assay.

[18] = system: HT-29; test: cells; assay type: functional, cell-based; settings: Homo sapiens;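 also: growth inhibition of human HT-29 cells, read out by a cell viability assay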
Description: SANGER: Inhibition of human HT-29 cell growth in a cell viability assay.

[19] = system: SW1417; test: cells; assay type: functional, cell-based; settings: Homo sapiens;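 also: growth inhibition of human SW1417 cells, read out with a cell viability assay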
Description: SANGER: Inhibition of human SW1417 cell growth in a cell viability assay.

[20] = system: DoTc2-4510; test: cells; assay type: functional, cell-based; settings: Homo sapiens
[21] = system: RCM-1; test: cells; assay type: functional, cell-based; settings: Homo sapiens;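 also: growth inhibition of the RCM-1 line, determined with a cell viability readout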
Description: SANGER: Inhibition of human RCM-1 cell growth in a cell viability assay.

[22] = system: SK-MEL3; test: cells; assay type: functional, cell-based, SK-MEL-3; settings: Homo sapiens;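 also: growth inhibition of human SK-MEL-3 cells, read out with a cell viability assay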
Description: SANGER: Inhibition of human SK-MEL-3 cell growth in a cell viability assay.

[23] = system: SW1990; test: cells; assay type: functional, cell-based; settings: Homo sapiens
Description: SANGER: Inhibition of human SW1990 cell growth in a cell viability assay.

[24] = system: REH; test: cells; assay type: functional, cell-based, Homo sapiens; settings: Homo sapiens, REH;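 also: growth inhibition of REH cells determined with a cell viability read-out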
Description: SANGER: Inhibition of human REH cell growth in a cell viability assay.

[25] = system: SK-MM-2; test: cells; assay type: functional, cell-based, Homo sapiens; settings: Homo sapiens, SK-MM-2;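 also: growth inhibition of human SK-MM-2 cells, read out with a cell viability assay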
Description: SANGER: Inhibition of human SK-MM-2 cell growth in a cell viability assay.

[26] = system: SW-620; test: cells; assay type: functional, cell-based; settings: Homo sapiens;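 also: growth inhibition of human SW-620 cells, measured by a cell viability assay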
Description: SANGER: Inhibition of human SW620 cell growth in a cell viability assay.

[27] = system: MeWo; test: cells; assay type: functional, cell-based; settings: Homo sapiens;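 also: growth inhibition of MeWo cells, determined by a cell viability readout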
Description: SANGER: Inhibition of human Mewo cell growth in a cell viability assay.

[28] = system: JEG-3; test: cells; assay type: functional, cell-based; settings: Homo sapiens;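 also: growth inhibition of human JEG-3 cells, read out with a cell viability assay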
Description: SANGER: Inhibition of human JEG-3 cell growth in a cell viability assay.

[29] = system: NCI-H1693; test: cells; assay type: functional, cell-based; settings: Homo sapiens;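 also: growth inhibition of the human cell line, read out with a cell viability assay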
Description: SANGER: Inhibition of human NCI-H1693 cell growth in a cell viability assay.

[30] = system: COLO-792; test: cells; assay type: functional, cell-based; settings: Homo sapiens
Description: SANGER: Inhibition of human COLO-792 cell growth in a cell viability assay.

[31] = system: 647-V; test: cells; assay type: functional, cell-based; settings: Homo sapiens;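 also: growth inhibition of 647-V cells, read out with a cell viability assay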
Description: SANGER: Inhibition of human 647-V cell growth in a cell viability assay.

[32] = system: MDA-MB-453; test: cells; assay type: functional, cell-based; settings: Homo sapiens
Description: SANGER: Inhibition of human MDA-MB-453 cell growth in a cell viability assay.

[33] = system: NCI-H64; test: cells; assay type: functional, cell-based, Homo sapiens; settings: Homo sapiens, NCI-H64;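 also: growth inhibition of NCI-H64 cells, read out with a cell viability assay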
Description: SANGER: Inhibition of human NCI-H64 cell growth in a cell viability assay.

[34] = system: MKN-1; test: cells; assay type: functional, cell-based; settings: Homo sapiens;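 also: growth inhibition of human MKN1 cells, read out by a cell viability measurement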
Description: SANGER: Inhibition of human MKN1 cell growth in a cell viability assay.

[35] = system: NCCIT; test: SANGER: Inhibition of human NCCIT cell growth in a cell viability assay.; assay type: functional, cell-based; settings: Homo sapiens, NCCIT
[36] = system: NCI-H1703; test: cells; assay type: functional, cell-based; settings: Homo sapiens;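 also: growth inhibition of NCI-H1703 cells, read out via a cell viability assay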
Description: SANGER: Inhibition of human NCI-H1703 cell growth in a cell viability assay.

[37] = system: AGS; test: cells; assay type: functional, cell-based; settings: Homo sapiens;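 also: growth inhibition of AGS cells, determined with a cell viability assay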
Description: SANGER: Inhibition of human AGS cell growth in a cell viability assay.

[38] = system: NCI-H460; test: cells; assay type: functional, cell-based; settings: Homo sapiens;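 also: cell viability assay scoring growth inhibition of human NCI-H460 cells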
Description: SANGER: Inhibition of human NCI-H460 cell growth in a cell viability assay.

[39] = system: NCI-H520; test: cells; assay type: functional, cell-based; settings: Homo sapiens;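 also: growth inhibition of NCI-H520 cells, measured by a cell viability assay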
Description: SANGER: Inhibition of human NCI-H520 cell growth in a cell viability assay.

[40] = system: NY; test: cells; assay type: functional, cell-based; settings: Homo sapiens
Description: SANGER: Inhibition of human NY cell growth in a cell viability assay.

[41] = system: WM-115; test: cells; assay type: functional, cell-based; settings: Homo sapiens
Description: SANGER: Inhibition of human WM-115 cell growth in a cell viability assay.

[42] = system: DOK; test: cells; assay type: functional, cell-based; settings: Homo sapiens;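 also: cell viability assay read-out, values reflect inhibition of cell growth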
Description: SANGER: Inhibition of human DOK cell growth in a cell viability assay.

[43] = system: WSU-NHL; test: cells; assay type: functional, cell-based, Homo sapiens; settings: Homo sapiens, WSU-NHL;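 also: growth inhibition of human WSU-NHL cells, read out with a cell viability assay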
Description: SANGER: Inhibition of human WSU-NHL cell growth in a cell viability assay.

[44] = system: SW1710; test: cells; assay type: functional, cell-based; settings: Homo sapiens;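 also: growth inhibition of SW1710 cells, determined with a cell viability assay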
Description: SANGER: Inhibition of human SW1710 cell growth in a cell viability assay.

[45] = system: IGR-1; test: cells; assay type: functional, cell-based; settings: Homo sapiens;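 also: growth inhibition of human IGR-1 cells, read out with a cell viability assay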
Description: SANGER: Inhibition of human IGR-1 cell growth in a cell viability assay.

[46] = system: CHP-126; test: cells; assay type: functional, cell-based, Homo sapiens; settings: Homo sapiens, CHP-126
Description: SANGER: Inhibition of human CHP-126 cell growth in a cell viability assay.

[47] = system: G-401; test: cells; assay type: functional, cell-based; settings: Homo sapiens
Description: SANGER: Inhibition of human G-401 cell growth in a cell viability assay.

[48] = system: NCI-H1963; test: cells; assay type: functional, cell-based, Homo sapiens; settings: Homo sapiens, NCI-H1963;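 also: cell growth inhibition of the human line, determined with a cell viability assay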
Description: SANGER: Inhibition of human NCI-H1963 cell growth in a cell viability assay.

[49] = system: KYSE-150 cell line; test: cells; assay type: functional, cell-based; settings: Homo sapiens;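 also: growth inhibition of human KYSE-150 cells, read out with a cell viability assay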
Description: SANGER: Inhibition of human KYSE-150 cell growth in a cell viability assay.

[50] = system: COLO-680N; test: cells; assay type: functional, cell-based; settings: Homo sapiens;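 also: cell viability assay used to measure inhibition of COLO-680N cell growth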
Description: SANGER: Inhibition of human COLO-680N cell growth in a cell viability assay.

[51] = system: HSC-2; test: cells; assay type: functional, cell-based; settings: Homo sapiens;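 also: growth inhibition of human HSC-2 cells, read out by a cell viability assay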
Description: SANGER: Inhibition of human HSC-2 cell growth in a cell viability assay.

[52] = system: HCC1937; test: cells; assay type: functional, cell-based; settings: Homo sapiens;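 also: growth inhibition measured with a cell viability read-out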
Description: SANGER: Inhibition of human HCC1937 cell growth in a cell viability assay.

[53] = system: NCI-H1651; test: cells; assay type: functional, cell-based; settings: Homo sapiens;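 also: Read-out is a cell viability assay, with IC50 expressing inhibition of NCI-H1651 cell growth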
Description: SANGER: Inhibition of human NCI-H1651 cell growth in a cell viability assay.

[54] = system: NCI-H1993; test: cells; assay type: functional, cell-based; settings: Homo sapiens;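 also: growth inhibition of the cancer cell line, assessed with a cell viability assay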
Description: SANGER: Inhibition of human NCI-H1993 cell growth in a cell viability assay.

[55] = system: Ca9-22; test: cells; assay type: functional, cell-based; settings: Homo sapiens;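 also: growth inhibition of Ca9-22 cells, read out with a cell viability assay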
Description: SANGER: Inhibition of human Ca9-22 cell growth in a cell viability assay.

[56] = system: 8505C; test: cells; assay type: functional, cell-based; settings: Homo sapiens
Description: SANGER: Inhibition of human 8505C cell growth in a cell viability assay.

[57] = system: HMV-2 cell line; test: cells; assay type: functional, cell-based; settings: Homo sapiens;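 also: growth inhibition of HMV-II cells, read out with a cell viability assay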
Description: SANGER: Inhibition of human HMV-II cell growth in a cell viability assay.

[58] = system: NCI-H2171; test: cells; assay type: functional, cell-based, Homo sapiens; settings: Homo sapiens, NCI-H2171;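 also: growth inhibition of human NCI-H2171 cells, read out by a cell viability assay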
Description: SANGER: Inhibition of human NCI-H2171 cell growth in a cell viability assay.

[59] = system: AN3-CA; test: cells; assay type: functional, cell-based; settings: Homo sapiens;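 also: growth inhibition of human AN3-CA cells measured by a cell viability assay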
Description: SANGER: Inhibition of human AN3-CA cell growth in a cell viability assay.

[60] = system: NCI-H522; test: cells; assay type: functional, cell-based; settings: Homo sapiens;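 also: cell viability assay measuring growth inhibition of human NCI-H522 cells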
Description: SANGER: Inhibition of human NCI-H522 cell growth in a cell viability assay.

O=S(=O)(O)c1ccc2cc(/N=N/c3cc(S(=O)(=O)O)c4cccnc4c3O)ccc2c1
IC50 [1]: > 16 µM
IC50 [2]: > 16 µM
IC50 [3]: > 16 µM
IC50 [4]: > 16 µM
IC50 [5]: > 16 µM
IC50 [6]: > 16 µM
IC50 [7]: > 16 µM
IC50 [8]: > 16 µM
IC50 [9]: > 16 µM
IC50 [10]: > 16 µM
IC50 [11]: > 16 µM
IC50 [12]: > 16 µM
IC50 [13]: > 16 µM
IC50 [14]: > 16 µM
IC50 [15]: > 16 µM
IC50 [16]: > 16 µM
IC50 [17]: > 16 µM
IC50 [18]: > 16 µM
IC50 [19]: > 16 µM
IC50 [20]: > 16 µM
IC50 [21]: > 16 µM
IC50 [22]: > 16 µM
IC50 [23]: > 16 µM
IC50 [24]: > 16 µM
IC50 [25]: > 16 µM
IC50 [26]: > 16 µM
IC50 [27]: > 16 µM
IC50 [28]: > 16 µM
IC50 [29]: > 16 µM
IC50 [30]: > 16 µM
IC50 [31]: > 16 µM
IC50 [32]: > 16 µM
IC50 [33]: > 16 µM
IC50 [34]: > 16 µM
IC50 [35]: > 16 µM
IC50 [36]: > 16 µM
IC50 [37]: > 16 µM
IC50 [38]: > 16 µM
IC50 [39]: > 16 µM
IC50 [40]: > 16 µM
IC50 [41]: > 16 µM
IC50 [42]: > 16 µM
IC50 [43]: > 16 µM
IC50 [44]: > 16 µM
IC50 [45]: > 16 µM
IC50 [46]: > 16 µM
IC50 [47]: > 16 µM
IC50 [48]: > 16 µM
IC50 [49]: > 16 µM
IC50 [50]: > 16 µM
IC50 [51]: > 16 µM
IC50 [52]: > 16 µM
IC50 [53]: > 16 µM
IC50 [54]: > 16 µM
IC50 [55]: > 16 µM
IC50 [56]: > 16 µM
IC50 [57]: > 16 µM
IC50 [58]: > 16 µM
IC50 [59]: 14.1 µM
IC50 [60]: > 16 µM

Cc1ccc(-n2nc(C(C)(C)C)cc2NC(=O)Nc2ccc(OCCN3CCOCC3)c3ccccc23)cc1 [DORAMAPIMOD]
IC50 [1]: > 10 µM
IC50 [2]: > 10 µM
IC50 [3]: > 10 µM
IC50 [4]: > 10 µM
IC50 [6]: > 10 µM
IC50 [7]: > 10 µM
IC50 [8]: > 10 µM
IC50 [11]: > 10 µM
IC50 [12]: > 10 µM
IC50 [15]: > 10 µM
IC50 [16]: > 10 µM
IC50 [18]: > 10 µM
IC50 [19]: > 10 µM
IC50 [20]: > 10 µM
IC50 [21]: > 10 µM
IC50 [22]: > 10 µM
IC50 [23]: > 10 µM
IC50 [26]: > 10 µM
IC50 [27]: > 10 µM
IC50 [28]: > 10 µM
IC50 [29]: > 10 µM
IC50 [30]: > 10 µM
IC50 [31]: > 10 µM
IC50 [32]: > 10 µM
IC50 [34]: > 10 µM
IC50 [36]: > 10 µM
IC50 [37]: > 10 µM
IC50 [38]: > 10 µM
IC50 [39]: > 10 µM
IC50 [40]: > 10 µM
IC50 [41]: > 10 µM
IC50 [42]: > 10 µM
IC50 [44]: > 10 µM
IC50 [45]: > 10 µM
IC50 [47]: > 10 µM
IC50 [49]: > 10 µM
IC50 [50]: > 10 µM
IC50 [51]: > 10 µM
IC50 [52]: > 10 µM
IC50 [53]: > 10 µM
IC50 [54]: > 10 µM
IC50 [55]: > 10 µM
IC50 [56]: > 10 µM
IC50 [57]: > 10 µM
IC50 [59]: > 10 µM
IC50 [60]: > 10 µM

Cc1ccc(C(=O)Nc2ccc(CN3CCN(C)CC3)c(C(F)(F)F)c2)cc1C#Cc1cnc2cccnn12 [PONATINIB]
IC50 [1]: > 0.512 µM
IC50 [2]: > 0.512 µM
IC50 [3]: 0.273 µM
IC50 [4]: > 0.512 µM
IC50 [5]: 0.0789 µM
IC50 [6]: > 0.512 µM
IC50 [7]: 0.204 µM
IC50 [8]: > 0.512 µM
IC50 [9]: > 0.512 µM
IC50 [10]: 0.175 µM
IC50 [11]: 0.193 µM
IC50 [12]: > 0.512 µM
IC50 [13]: > 0.512 µM
IC50 [14]: > 0.512 µM
IC50 [15]: > 0.512 µM
IC50 [16]: > 0.512 µM
IC50 [17]: 0.365 µM
IC50 [18]: > 0.512 µM
IC50 [19]: > 0.512 µM
IC50 [20]: > 0.512 µM
IC50 [21]: > 0.512 µM
IC50 [22]: > 0.512 µM
IC50 [23]: > 0.512 µM
IC50 [24]: > 0.512 µM
IC50 [25]: > 0.512 µM
IC50 [26]: > 0.512 µM
IC50 [27]: > 0.512 µM
IC50 [28]: > 0.512 µM
IC50 [29]: > 0.512 µM
IC50 [30]: > 0.512 µM
IC50 [31]: > 0.512 µM
IC50 [32]: > 0.512 µM
IC50 [33]: > 0.512 µM
IC50 [34]: > 0.512 µM
IC50 [35]: > 0.512 µM
IC50 [36]: 0.196 µM
IC50 [37]: > 0.512 µM
IC50 [38]: > 0.512 µM
IC50 [39]: 0.177 µM
IC50 [40]: 0.193 µM
IC50 [41]: > 0.512 µM
IC50 [42]: > 0.512 µM
IC50 [43]: > 0.512 µM
IC50 [44]: 0.365 µM
IC50 [45]: > 0.512 µM
IC50 [46]: > 0.512 µM
IC50 [47]: > 0.512 µM
IC50 [48]: > 0.512 µM
IC50 [49]: 0.424 µM
IC50 [50]: > 0.512 µM
IC50 [51]: > 0.512 µM
IC50 [52]: > 0.512 µM
IC50 [53]: > 0.512 µM
IC50 [54]: > 0.512 µM
IC50 [55]: > 0.512 µM
IC50 [56]: > 0.512 µM
IC50 [57]: > 0.512 µM
IC50 [59]: 0.0187 µM
IC50 [60]: 0.453 µM
